Tests used:
DCAMKL-1 = assay: siRNA knockdown of DCAMKL-1 in SW480 cells, real-time RT-PCR and Western blot; format: cell-based, human
Method: Cell culture. HCT116, HCT116 p21^−/− and SW480 human colon adenocarcinoma cell lines were obtained from the American Type Culture Collection (ATCC) and grown in Dulbecco's modified eagle's medium (DMEM) supplemented with 10% fetal bovine serum and 100 U/mL penicillin-streptomycin in a humidified chamber at 37° C. with 5% CO2.
Silencer RNA. DCAMKL-1 siRNA (si-DCAMKL-1) sequence targeting the coding region of DCAMKL-1 (Accession # NM_004734 (SEQ ID NO:1)) ([…] (SEQ ID NO:3)) and scrambled control siRNAs (si-Scr) not matching any of the human genes were obtained (Ambion Inc., Austin, Tex.) and transfected using Transfectol™ (Ambion Inc.).
Real-time reverse transcription-PCR analyses. Total RNA isolated either from cells or from human colon cancer cell tumor xenograft samples was subjected to reverse transcription with Superscript™ II RNase H—Reverse Transcriptase and random hexanucleotide primers (Invitrogen, Carlsbad, Calif.). The cDNA was subsequently used to perform Real-time PCR by SYBR chemistry (SYBR® Green I; Molecular Probes) for specific transcripts using gene specific primers and Jumpstart Taq DNA polymerase (Sigma-Aldrich, St. Louis, Mo.). […] The changes in mRNA were expressed as fold change relative to control with ±SEM value.
miRNA analysis. Total miRNA was isolated using mirVana™ miRNA isolation kit (Ambion Inc.). Total miRNA isolated either from cells or from human colon cancer cell tumor xenograft samples were subjected to reverse transcription with Superscript™ II RNase H—Reverse Transcriptase and random hexanucleotide primers (Invitrogen, Carlsbad, Calif.). The cDNA was subsequently used to perform Real-time PCR by SYBR chemistry (SYBR® Green I; Molecular Probes) for pri-let-7a transcript using specific primers and Jumpstart Taq DNA polymerase (Sigma-Aldrich, St. Louis, Mo.). […] The changes in pri-miRNA were expressed as fold change relative to control with ±SEM value. Primers used are: […]
Western Blot analysis. HCT116 and SW480 cells were cultured in a 6 well plates to 40% confluency and were transfected with si-DCAMKL-1 or si-Scr for 72 h. Cells or the tumor xenograft samples were lysed and the concentration of protein was determined by BCA protein assay kit (Pierce Biotechnology Inc., Rockford, Ill.). Forty μg of the protein was size separated in a 7.5-15% SDS polyacrylamide gel and transferred onto a nitrocellulose membrane with a semidry transfer apparatus (Amersham-Pharmacia, Piscataway, N.J.). The membrane was blocked in 5% non-fat dry milk for 1 h and probed overnight with a rabbit anti-DCAMKL-1 antibody (Abcam Inc., Cambridge, Mass.) or with rabbit anti-c-Myc antibody (Santa Cruz). Subsequently, the membrane was incubated with anti-rabbit or anti-goat IgG horseradish peroxidase-conjugated antibodies (Amersham-Pharmacia) for 1 h at room temperature. The 82 kDa DCAMKL-1 and 49 kDa c-Myc proteins were detected using ECL™ Western Blotting detection reagents (Amersham-Pharmacia). Actin (43 kDa), used as loading control was identified using a goat polyclonal IgG (Santa Cruz Biotechnology Inc., Santa Cruz, Calif.).

HCV subgenomic replicon = assay: HCV replication in GS5 cells (Huh7.5 with HCV subgenomic replicon); format: cell-based, hepatitis C virus; conditions: 48 hours
Method: FIG. 61 illustrates that DCAMKL-1 is required for the HCV replication. A. siRNA against DCAMKL-1 (Si-DCAMKL1, 50 nM and 100 nM) or scrambled siRNA (SCR, 100 nM) were transfected into GS5 cells. Total RNAs were extracted and subjected to real-time quantitative PCR. The levels of HCV and DCAMKL-1 RNAs were considered arbitrary as one unit in untransfected GS5 cells (Cont). Actin mRNA in each sample was used as internal control for PCR. B. Western blot analysis of siRNAs tranfected and untransfected samples as indicated.
Induction of putative stem cell/pluripotency factors by HCV: Normal adult hepatocytes are fully differentiated cells and lack expression of pluripotency factors. However, these cells can be induced to proliferate rapidly after partial hepatectomy and can also be reprogrammed into stem-like cells by forced expression of a cocktail of transcription factors. Thus, the impact of HCV on expression pattern of stem/progenitor cell markers was investigated in GS5 cells, which are derived from hepatoma cell line (Huh7.5) and support constitutive replication of a subgenomic HCV replicon under G418 selection. The replicon expresses HCV nonstructural proteins NS3 through NS5B of the HCV-1a strain and green florescent protein (GFP)-NS5A chimera. Total lysates from parent Huh7.5 and GS5 cells were subjected to Western blot analysis (FIG. 59).
Putative intestinal stem cell marker DCAMKL1 is required for the HCV replication: The eccentric, punctate staining of HCV replication complexes consisting of most of the nonstructural proteins and cellular factors has been a puzzling question. It is known that these replication complexes associate with microtubules in order to replicate the HCV RNA. The DCAMKL1 protein, which binds and polymerizes tubulin into microtubule filaments, is considered as a putative marker for quiescent stem cells in the intestine, and its expression is increased in cancer stem cells. During confocal microscopy, most DCAMKL1 localization was consistently observed in the area containing replication complexes (indicated by NS5A-GFP) and high concentration of microtubules (FIG. 60). The perinuclear co-localization of DCAMKL1 with the NS5A-GFP (indicated by yellow stain) was also observed.

PICSC tumor xenografts = assay: PICSC generated isograft tumor growth in mice; format: in vivo; conditions: siRNA injected from day 15, 5 times at an interval of 3 days
Method: To determine whether targeted DCAMKL-1 downregulation and/or Notch inhibition affected […] generated isograft tumor growth, mice were treated with siRNA to DCAMKL-1 or the Notch inhibitor DAPT. After the tumors were allowed to develop (15 days), siRNA was injected a total of 5 times at an interval of 3 days as described earlier.

[1] = real-time RT-PCR, compared to controls

Chain of DCAMKL-1 (O15075 other isoform, or with tags, fused parts or gaps): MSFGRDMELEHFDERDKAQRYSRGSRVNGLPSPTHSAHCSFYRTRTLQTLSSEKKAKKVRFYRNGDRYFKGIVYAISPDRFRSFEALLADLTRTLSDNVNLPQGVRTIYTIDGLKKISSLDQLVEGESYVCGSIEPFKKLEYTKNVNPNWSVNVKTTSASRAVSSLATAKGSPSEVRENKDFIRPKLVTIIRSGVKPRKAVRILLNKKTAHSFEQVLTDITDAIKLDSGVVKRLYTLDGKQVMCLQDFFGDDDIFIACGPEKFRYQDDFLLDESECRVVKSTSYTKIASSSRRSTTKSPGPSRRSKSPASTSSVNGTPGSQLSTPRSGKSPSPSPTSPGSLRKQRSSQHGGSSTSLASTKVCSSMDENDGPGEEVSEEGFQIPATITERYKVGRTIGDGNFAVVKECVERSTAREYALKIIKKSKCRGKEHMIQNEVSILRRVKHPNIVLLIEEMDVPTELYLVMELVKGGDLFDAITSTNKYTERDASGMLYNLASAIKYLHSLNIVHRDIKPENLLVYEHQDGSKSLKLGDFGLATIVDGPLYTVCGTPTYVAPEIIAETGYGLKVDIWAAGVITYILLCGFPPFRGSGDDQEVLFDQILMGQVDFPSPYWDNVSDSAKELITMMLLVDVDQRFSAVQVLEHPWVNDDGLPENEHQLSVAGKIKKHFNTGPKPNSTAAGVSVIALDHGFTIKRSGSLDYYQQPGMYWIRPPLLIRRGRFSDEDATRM

In the case of “si-DCAMKL-1: siRNA targeting the coding region of DCAMKL-1 (NM_004734), sequence GGGAGUGAGAACAAUCUAC (SEQ ID NO:3) (chemistry not given here; listed as Homo sapiens)”, the “c-Myc mRNA and protein” value (DCAMKL-1) is reported as “Reduction”, the “reduction in Notch-1 mRNA” value (DCAMKL-1) is reported as > 50% and the “Notch-1 and cleaved Notch-1 protein” value (DCAMKL-1; Western blot) is reported as “dose dependent reduction”. The DCAMKL-1 protein (DCAMKL-1; Western blot, 72 h transfection) was “reduction”, the “reduction in DCAMKL-1 mRNA expression” value (DCAMKL-1; real-time RT-PCR) was > 70% and the “increase in pri-let-7a miRNA” value (DCAMKL-1; [1]) was 4 fold. The “increase in pri-miR-144 miRNA” value (DCAMKL-1; [1]) was 3 fold, the NS5B polymerase level (HCV subgenomic replicon; Western blot) was “decreases” and the “HCV RNA level” value (HCV subgenomic replicon; siRNA 50 nM and 100 nM) was “decreases”. For the same substance, the “expression of DCAMKL1” value (HCV subgenomic replicon; siRNA 50 nM and 100 nM) was “effectively inhibited” and the isograft tumor growth (PICSC tumor xenografts) was “growth arrest”.

Reference: patent US8936941B2, “Compositions useful for cancer detection and treatment, a cancer stem cell model, and methods of production and use thereof” (priority 2008, dated 2015)
